Source: patent US10030047B2 (Hoffmann-La Roche Inc., priority 2015, dated 2018)

Test system: A. baumannii strain ATCC17978
Test: 50% growth inhibitory concentration (IC50) determination, Iso-Sensitest broth
Assay type: cell-based
Conditions: Acinetobacter baumannii; A. baumannii ATCC17978; Iso-Sensitest medium; OD 600 nm over 16 h; read-out: IC50 ATCC17978
Procedure, shortened: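 Twofold dilution series (e.g. 50 to 0.097 μM final) in Iso-Sensitest broth, inoculum ~5×10^(5) CFU/ml, incubated at 35±2° C. OD600 read every 20 min over 16 h; IC50 and IC90 calculated during logarithmic growth.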

CCCC[C@@H]1NC(=O)[C@H](CCCN)NCc2cccnc2Sc2c(Cl)cc(Cl)cc2CNC(=O)[C@H](Cc2c[nH]c3ccccc23)N(C)C1=O [Example 253, (11S,14S,17S)-11-(3-Amino-propyl)-14-butyl-23,25-dichloro-17-(1H-indol-3-ylmethyl)-16-methyl-2-thia-4,10,13,16,19-pentaaza-tricyclo[19.4.0.0*3,8*]pentacosa-1(25),3(8),4,6,21,23-hexaene-12,15,18-trione]
IC50: 4.2 µM
